Assay results as given in patent US20190382454A1, “A MODIFIED PEPTIDE AS AN ANTICANCER AGENT” (Amrita Therapeutics Limited, priority 2015, published 2019).
Entries after “also recorded” stand apart in the source; their conditions may differ. Ends that are not written are not given here.

Experiments:
HCT116 cells (carcinoma) = experiment: HCT116 xenograft in SCID mice; assay type: in vivo; conditions: 25 mg/kg daily, 21 days of treatment
Procedure: (§1) SCID mice were injected subcutaneously with either 1 million HCT116 cells (carcinoma) or HT29 cells (adenocarcinoma) both of which are colon cancer cells. After 2 weeks tumors developed could be seen and the process of injecting AT-01C peptide was initiated. For HCT116 xenograft mice model AT-01C peptide of 25 mg/kg body weight of mice was injected intra-peritoneally. In case of HT29 xenograft mice model AT-01C peptide of 50 mg/kg body weight of mice was injected intra-peritoneally. Stock concentration of the AT-01C was 10 mg/ml. Both the mice group were injected with AT-01C peptide for 21 days daily just 5 mm away from the tumors. The daily injection was performed by injecting AT-01C surrounding the tumors being developed. After 21 days of injection tumors excised and their weight and volume was measured.
(§2) Tumors raised in SCID mice by subcutaneously injecting either 1 million HCT116 cells or HT29 cells (Xenograft model). After tumors developed and were visible to eyes AT-01C peptide treatment was started. For tumors raised using HCT116 colon cancer cells AT-01C of 25 mg/kg body weight of mice was injected intra-peritoneally. AT-01C peptide of 50 mg/kg body weight was injected intra-peritoneally as treatment for tumors raised with HT29 cells. AT-01C was injected daily surrounding the tumor 5 mm away from it. After 21 days of peptide injection, mice were sacrificed and tumors excised. […]

[1] = tested on: HT29 cells (adenocarcinoma); experiment: HT29 xenograft in SCID mice; assay type: in vivo; conditions: 50 mg/kg daily, 21 days of treatment
Procedure: as §1, §2

SMAR1 [2] = molecular target: T1, SMAR1 (Homo sapiens, UniProt Q8N9N5); experiment: SMAR1 stabilization/induction in HCT116 cells (western blot); assay type: cell-based; conditions: peptide treatment 48 hours
T1 construct: HCT116 cells treated with different available peptides for 48 hours stabilized SMAR1 expression; endogenous in cells; host or cells: HCT116 p53+/+, HCT116 p53-/-, MCF7, SW620, NCI-H522, MDA-MB231
T1 sequence (Q8N9N5 1-519): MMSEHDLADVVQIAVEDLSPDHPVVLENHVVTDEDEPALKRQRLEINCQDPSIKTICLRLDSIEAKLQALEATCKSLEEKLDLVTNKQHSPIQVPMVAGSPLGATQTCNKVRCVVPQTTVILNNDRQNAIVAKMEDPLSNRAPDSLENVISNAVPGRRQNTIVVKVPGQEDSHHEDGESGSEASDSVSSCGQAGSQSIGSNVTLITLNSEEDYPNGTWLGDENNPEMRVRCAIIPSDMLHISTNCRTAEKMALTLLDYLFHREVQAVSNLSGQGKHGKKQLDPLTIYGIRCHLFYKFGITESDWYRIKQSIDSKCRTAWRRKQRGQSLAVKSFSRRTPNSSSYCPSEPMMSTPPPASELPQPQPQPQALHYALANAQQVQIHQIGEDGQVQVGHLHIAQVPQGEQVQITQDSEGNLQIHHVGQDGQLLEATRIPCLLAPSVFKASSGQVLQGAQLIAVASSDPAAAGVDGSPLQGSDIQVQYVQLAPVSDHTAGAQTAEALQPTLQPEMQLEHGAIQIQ

SMAR1 [3] = experiment: Peptide interaction assay by ITC, SMAR1; assay type: binding; conditions: 25° C.
HCT116 cells = experiment: Colony formation assay; assay type: cell-based
Procedure: 200 HCT116 cells seeded in 35 mm petri dishes and cultured for 24 hours. 10 μg of AT-01D added fresh every two days up to day 12th. Cell were washed with 1× Phosphate Buffer Saline and then fixed using 3% Para-formaldehyde for 10 minutes. Cells were washed and stained with Crystal violet for 30 minutes. After washing with PBS plates were kept inverted and air dried. Colonies were counted using inverted bright field microscope (Nikon). A group of cells were identified to be a colony that consists of more than 50 cells.

SMAR1 [4] = experiment: PCR of SMAR1 mRNA in HCT116p53+/+ cells; conditions: 48 hours
[5] = tested on: MDA-MB231 breast cancer cells; experiment: Wound healing / cell migration assay; assay type: cell-based, Human; conditions: MDA-MB231, 10 μg peptide, recorded up to 16 hours, vs DMSO control
Procedure: MDA-MB231 breast cancer cells (1×10^^6) were seeded in a 6 well plate and maintained in L15 DMEM medium supplemented with 10% FBS and 100 Units of Penicillin Streptomycin antibiotics for 24 hours. Cells were treated for 24 hours with AT-01C and AT-01D peptides of 10 μg each. Post 24 hours wound was created and washed with medium to remove the cells detached during wound creation. Fresh peptides were added plate was mounted at the microscope chamber maintaining the temperature of 37° C. Images were acquired in NIKON Confocal Microscope for 5 minutes interval. Time lapse was set for 16 hours and images were compiled to make the video movie of the cell migration.

MDA-MB231 cells = experiment: Annexin V staining by flow cytometry (FACS); assay type: cell-based, Human; conditions: after peptide treatment
SMAR1 [6] = molecular target: T1, SMAR1; experiment: SMAR1 induction in HCT116p53-/- cells; assay type: cell-based
SMAR1 [7] = molecular target: T1, SMAR1; experiment: SMAR1 stabilization across a variety of cancer cell lines (MCF7, SW620, NCI-H522, HCT116p53-/-, MDA-MB231); assay type: cell-based; conditions: different concentrations
[8] = molecular target: T2, Scaffold Matrix Attachment Region Binding Protein 1 (SMAR1), full length (UniProt Q8N9N5 1-519); experiment: ITC, 25 C
T2 construct: This molecule also stands for endogenous SMAR1 of HCT116 cells in the functional rows
T2 sequence: T1 sequence (Q8N9N5 1-519)

ATATVNAIRGSVTPAVSQFN [AT-01C]
survival of mice (HCT116 cells (carcinoma)): All the mice survived | survival of mice [1]: All the mice survived

GQVWEATATVNAIRGSVTPAVSQFNARTAD (The sequence is developed from MPT63 of M. tuberculosis) [AT-01, 30 amino acid peptide synthesized from MPT-63 of M. tuberculosis]
SMAR1 stabilization / induction (SMAR1 [2]): very less or no induction of SMAR1 | interaction with SMAR1 (ITC) (SMAR1 [3]): failed to interact with SMAR1

NAIRGSVTPAVSQFN (The sequence is developed from MPT63 of M. tuberculosis) [AT-01D, 15 amino acid peptide derived from AT01]
colony formation / rate of cell proliferation (HCT116 cells; HCT116, 10 μg, 12 days, vs DMSO control): delayed or decreased | apoptotic cells in colony formation culture (HCT116 cells; HCT116, till the 12th day): No apoptotic cells or group of cells observed | transcriptional regulation of SMAR1 (PCR) (SMAR1 [4]): failed to control the transcriptional regulation of SMAR1 | cell migration [5]: mitigation of anticipated cell migration; also recorded: attenuate migration | cell death (Annexin V) (MDA-MB231 cells): no signs of cell death | SMAR1 stabilization / induction (SMAR1 [2]): heightened effectiveness; also recorded: superior induction of SMAR1; also recorded: stabilized SMAR1 the most; also recorded: significantly induce expression of SMAR1 | induction of SMAR1 (SMAR1 [6]): induction of SMAR1 was observed | SMAR1 stabilization (SMAR1 [7]): heightened effectiveness | interaction with SMAR1 (ITC) (SMAR1 [3]): positive results

B1: AT-01 (peptide)
peptide: GQVWEATATVNAIRGSVTPAVSQFNARTAD
notes: also called parent 30 amino acid peptide
binding result [8]: no binding
